According to patent US7601716B2, “Pyridopyrazines and derivatives thereof as ALK and c-Met inhibitors” (Cephalon, Inc., priority 2006, dated 2009):

Each molecule was assayed against baculovirus-expressed ALK (Homo sapiens, UniProt Q9UM73) (assay: ALK Kinase Assay (ELISA/TRF, PLC-γ substrate)). Details: read-out: ALK Kinase Inhibition (IC50).
Format: biochemical
Experimental: Example compounds were tested for their ability to inhibit the kinase activity of baculovirus-expressed ALK using a modification of the ELISA protocol reported for trkA in Angeles, T. S. et al., Anal. Biochem. 1996, 236, 49-55, which is incorporated herein by reference in its entirety. Phosphorylation of the substrate, phospholipase C-gamma (PLC-γ) generated as a fusion protein with glutathione S-transferase (GST) as reported in Rotin, D. et al., EMBO J. 1992, 11, 559-567, which is incorporated herein by reference in its entirety, was detected with a europium-labeled anti-phosphotyrosine antibody and measured by time-resolved fluorescence (TRF). Briefly, each 96-well plate was coated with 100 μL/well of 10 μg/mL substrate (phospholipase C-γ) in Tris-buffered saline (TBS). […] The reaction was initiated by adding enzyme (30 ng/ml ALK) and was allowed to proceed at 37° C. for 15 minutes. Detection of the phosphorylated product was performed by adding 100 μl/well of Eu-N1 labeled PT66 antibody (Perkin Elmer # AD0041). Incubation at 37° C. then proceeded for one (1) hour, followed by addition of 100 μL enhancement solution (Wallac #1244-105). The plate was gently agitated and after thirty minutes, the fluorescence of the resulting solution was measured using the EnVision 2100 (or 2102) multilabel plate reader (Perkin Elmer).
Data analysis was performed using ActivityBase (IDBS, Guilford, UK). IC50 values were calculated by plotting percent inhibition versus log10 of the concentration of compound and fitting to the nonlinear regression sigmoidal dose-response (variable slope) equation in XLFit (IDBS, Guilford, UK).
Note: 1 µM ATP (Km level).

baculovirus-expressed ALK, sequence (Q9UM73 19-1620): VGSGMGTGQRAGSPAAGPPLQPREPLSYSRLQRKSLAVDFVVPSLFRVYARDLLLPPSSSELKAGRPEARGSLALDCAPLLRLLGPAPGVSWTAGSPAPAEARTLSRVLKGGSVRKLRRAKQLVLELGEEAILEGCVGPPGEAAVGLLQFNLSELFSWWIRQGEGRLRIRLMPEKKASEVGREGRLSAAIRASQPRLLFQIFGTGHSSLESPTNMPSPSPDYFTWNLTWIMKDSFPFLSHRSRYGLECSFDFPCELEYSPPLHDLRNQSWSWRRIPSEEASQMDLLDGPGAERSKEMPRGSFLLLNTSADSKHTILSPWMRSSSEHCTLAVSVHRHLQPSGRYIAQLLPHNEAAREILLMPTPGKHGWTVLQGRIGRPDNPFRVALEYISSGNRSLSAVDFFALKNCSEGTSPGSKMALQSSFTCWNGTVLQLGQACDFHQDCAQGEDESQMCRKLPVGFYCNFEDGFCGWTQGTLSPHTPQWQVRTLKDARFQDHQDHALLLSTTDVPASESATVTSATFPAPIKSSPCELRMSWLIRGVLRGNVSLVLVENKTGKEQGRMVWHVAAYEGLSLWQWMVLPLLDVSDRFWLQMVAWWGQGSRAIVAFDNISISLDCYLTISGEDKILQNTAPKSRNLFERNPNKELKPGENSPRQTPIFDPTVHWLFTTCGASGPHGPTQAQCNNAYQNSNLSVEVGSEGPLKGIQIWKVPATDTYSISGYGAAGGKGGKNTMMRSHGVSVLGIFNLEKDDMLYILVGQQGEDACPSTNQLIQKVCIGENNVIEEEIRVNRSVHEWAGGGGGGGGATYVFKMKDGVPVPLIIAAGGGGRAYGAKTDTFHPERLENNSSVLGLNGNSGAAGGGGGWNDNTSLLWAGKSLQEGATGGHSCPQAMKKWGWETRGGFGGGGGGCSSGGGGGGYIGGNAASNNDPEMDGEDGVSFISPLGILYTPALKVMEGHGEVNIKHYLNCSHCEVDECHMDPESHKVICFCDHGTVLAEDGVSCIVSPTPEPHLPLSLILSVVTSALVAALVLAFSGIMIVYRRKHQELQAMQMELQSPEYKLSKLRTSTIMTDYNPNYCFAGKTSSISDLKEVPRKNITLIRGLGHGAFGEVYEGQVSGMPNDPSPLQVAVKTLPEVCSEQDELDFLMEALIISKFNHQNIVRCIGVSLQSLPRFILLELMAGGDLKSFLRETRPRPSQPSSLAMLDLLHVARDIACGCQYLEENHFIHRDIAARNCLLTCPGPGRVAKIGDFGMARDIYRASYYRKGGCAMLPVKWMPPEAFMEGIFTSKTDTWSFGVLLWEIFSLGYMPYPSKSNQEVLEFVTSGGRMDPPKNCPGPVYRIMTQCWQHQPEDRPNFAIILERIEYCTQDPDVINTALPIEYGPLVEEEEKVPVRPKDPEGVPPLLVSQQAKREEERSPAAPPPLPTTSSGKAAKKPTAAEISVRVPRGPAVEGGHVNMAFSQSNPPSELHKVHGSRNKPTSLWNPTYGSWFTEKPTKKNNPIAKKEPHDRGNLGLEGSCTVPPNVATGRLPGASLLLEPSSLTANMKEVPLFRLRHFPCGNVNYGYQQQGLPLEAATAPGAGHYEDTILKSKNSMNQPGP

Compound | IC50 [nM]
O=C(c1cccc(-c2cnc3c(c2)N(Cc2cc(Cl)ccc2C(F)(F)F)CCN3)c1)N1CCN(CC2CCCCC2)CC1 [Example 362, (3-{1-[5-Chloro-2-(trifluoromethyl)benzyl]-1,2,3,4-tetrahydropyrido[2,3-b]pyrazin-7-yl}phenyl)-[4-(cyclohexylmethyl)piperazin-1-yl]methanone] | 100 to 1000
O=C(c1ccc(-c2cnc3c(c2)N(Cc2cc(Cl)ccc2C(F)(F)F)CCN3)cc1)N1CCC2(CC1)C(=O)NCN2c1ccccc1 [Example 380, 8-(4-{1-[5-Chloro-2-(trifluoromethyl)benzyl]-1,2,3,4-tetrahydropyrido[2,3-b]pyrazin-7-yl}benzoyl)-1-phenyl-1,3,8-triaza-spiro[4.5]decan-4-one] | 100 to 1000
O=C(c1cccc(-c2cnc3c(c2)N(Cc2cc(Cl)ccc2C(F)(F)F)CCN3)c1)N1CCC2(CC1)C(=O)NCN2c1ccccc1 [Example 318, 8-(3-{1-[5-Chloro-2-(trifluoromethyl)benzyl]-1,2,3,4-tetrahydropyrido[2,3-b]pyrazin-7-yl}benzoyl)-1-phenyl-1,3,8-triaza-spiro[4.5]decan-4-one] | 100 to 1000
Cc1cc(N2CCN(C(=O)c3cccc(-c4cnc5c(c4)N(Cc4cc(Cl)ccc4C(F)(F)F)CCN5)c3)CC2)c2ccccc2n1 [Example 337, (3-{1-[5-Chloro-2-(trifluoromethyl)benzyl]-1,2,3,4-tetrahydropyrido[2,3-b]pyrazin-7-yl}phenyl)-[4-(2-methylquinolin-4-yl)piperazin-1-yl]methanone] | 100 to 1000
O=C(NC1CCCCC1)c1cccc(-c2cnc3c(c2)N(Cc2cc(Cl)ccc2C(F)(F)F)CCN3)c1 [Example 346, 3-{1-[5-Chloro-2-(trifluoromethyl)benzyl]-1,2,3,4-tetrahydropyrido[2,3-b]pyrazin-7-yl}-N-cyclohexylbenzamide] | 100 to 1000
O=C(c1cccc(-c2cnc3c(c2)N(Cc2cc(Cl)ccc2C(F)(F)F)CCN3)c1)N1CCN(c2ncccn2)CC1 [Example 307, (3-{1-[5-Chloro-2-(trifluoromethyl)benzyl]-1,2,3,4-tetrahydropyrido[2,3-b]pyrazin-7-yl}phenyl)-(4-pyrimidin-2-ylpiperazin-1-yl)methanone] | 100 to 1000
COc1ccc(CNC(=O)c2cccc(-c3cnc4c(c3)N(Cc3cc(Cl)ccc3C(F)(F)F)CCN4)c2)cc1 [Example 354, 3-{1-[5-Chloro-2-(trifluoromethyl)benzyl]-1,2,3,4-tetrahydropyrido[2,3-b]pyrazin-7-yl}-N-(4-methoxybenzyl)benzamide] | 100 to 1000
COc1ccc(N2CCN(C(=O)c3cccc(-c4cnc5c(c4)N(Cc4cc(Cl)ccc4C(F)(F)F)CCN5)c3)CC2)cc1 [Example 345, (3-{1-[5-Chloro-2-(trifluoromethyl)benzyl]-1,2,3,4-tetrahydropyrido[2,3-b]pyrazin-7-yl}phenyl)-[4-(4-methoxyphenyl)piperazin-1-yl]methanone] | 100 to 1000
O=C(c1ccc(-c2cnc3c(c2)N(Cc2cc(Cl)ccc2C(F)(F)F)CCN3)cc1)N1CCN(Cc2ccc(Cl)cc2)CC1 [Example 383, [4-(4-Chlorobenzyl)piperazin-1-yl]-(4-{1-[5-chloro-2-(trifluoromethyl)benzyl]-1,2,3,4-tetrahydropyrido[2,3-b]pyrazin-7-yl}phenyl)methanone] | 100 to 1000
O=C(c1ccc(-c2cnc3c(c2)N(Cc2cc(Cl)ccc2C(F)(F)F)CCN3)cc1)N1CCN(c2ncccn2)CC1 [Example 369, (4-{1-[5-Chloro-2-(trifluoromethyl)benzyl]-1,2,3,4-tetrahydropyrido[2,3-b]pyrazin-7-yl}phenyl)-(4-pyrimidin-2-ylpiperazin-1-yl)methanone] | 100 to 1000
NS(=O)(=O)c1ccc(CCNC(=O)c2cccc(-c3cnc4c(c3)N(Cc3cc(Cl)ccc3C(F)(F)F)CCN4)c2)cc1 [Example 338, 3-{1-[5-Chloro-2-(trifluoromethyl)benzyl]-1,2,3,4-tetrahydropyrido[2,3-b]pyrazin-7-yl}-N-[2-(4-sulfamoylphenyl)ethyl]benzamide] | 100 to 1000
O=C(c1cccc(-c2cnc3c(c2)N(Cc2cc(Cl)ccc2C(F)(F)F)CCN3)c1)N1CCN(C(=O)C2CCCO2)CC1 (stereo not shown) [Example 351, (3-{1-[5-Chloro-2-(trifluoromethyl)benzyl]-1,2,3,4-tetrahydropyrido[2,3-b]pyrazin-7-yl}phenyl)-[4-(tetrahydrofuran-2-carbonyl)piperazin-1-yl]methanone] | 100 to 1000

Continued, values first:

IC50 [nM] | Compound
< 100 | O=C(c1ccccc1)N1CCN(C(=O)c2ccc(-c3cnc4c(c3)N(Cc3cc(Cl)ccc3C(F)(F)F)CCN4)cc2)CC1 [Example 385, (4-Benzoylpiperazin-1-yl)-(4-{1-[5-chloro-2-(trifluoromethyl)benzyl]-1,2,3,4-tetrahydropyrido[2,3-b]pyrazin-7-yl}phenyl)methanone]
100 to 1000 | O=C(NCC(c1ccccc1)c1ccccc1)c1ccc(-c2cnc3c(c2)N(Cc2cc(Cl)ccc2C(F)(F)F)CCN3)cc1 [Example 391, 4-{1-[5-Chloro-2-(trifluoromethyl)benzyl]-1,2,3,4-tetrahydropyrido[2,3-b]pyrazin-7-yl}-N-(2,2-diphenylethyl)benzamide]
100 to 1000 | O=C(c1ccc(-c2cnc3c(c2)N(Cc2cc(Cl)ccc2C(F)(F)F)CCN3)cc1)N1CCCC1c1cccnc1 (stereo not shown) [Example 431, (4-{1-[5-Chloro-2-(trifluoromethyl)benzyl]-1,2,3,4-tetrahydropyrido[2,3-b]pyrazin-7-yl}phenyl)-(2-pyridin-3-yl-pyrrolidin-1-yl)methanone]
< 100 | Cc1cc(N2CCN(C(=O)c3ccc(-c4cnc5c(c4)N(Cc4cc(Cl)ccc4C(F)(F)F)CCN5)cc3)CC2)c2ccccc2n1 [Example 403, (4-{1-[5-Chloro-2-(trifluoromethyl)benzyl]-1,2,3,4-tetrahydropyrido[2,3-b]pyrazin-7-yl}phenyl)-[4-(2-methylquinolin-4-yl)piperazin-1-yl]methanone]
< 100 | CC(C)NC(=O)CN1CCN(C(=O)c2ccc(-c3cnc4c(c3)N(Cc3cc(Cl)ccc3C(F)(F)F)CCN4)cc2)CC1 [Example 402, 2-[4-(4-{1-[5-Chloro-2-(trifluoromethyl)benzyl]-1,2,3,4-tetrahydropyrido[2,3-b]pyrazin-7-yl}benzoyl)piperazin-1-yl]-N-isopropylacetamide]
100 to 1000 | O=C(c1ccc(-c2cnc3c(c2)N(Cc2cc(Cl)ccc2C(F)(F)F)CCN3)cc1)N1CCN(c2ccccc2Cl)CC1 [Example 426, [4-(2-Chlorophenyl)piperazin-1-yl]-(4-{1-[5-chloro-2-(trifluoromethyl)benzyl]-1,2,3,4-tetrahydropyrido[2,3-b]pyrazin-7-yl}phenyl)methanone]
100 to 1000 | O=C(NCc1cc(C(F)(F)F)cc(C(F)(F)F)c1)c1ccc(-c2cnc3c(c2)N(Cc2cc(Cl)ccc2C(F)(F)F)CCN3)cc1 [Example 397, N-[3,5-Bis(trifluoromethyl)benzyl]-4-{1-[5-Chloro-2-(trifluoromethyl)benzyl]-1,2,3,4-tetrahydropyrido[2,3-b]pyrazin-7-yl}benzamide]
100 to 1000 | O=C(NC1Cc2ccccc2C1)c1ccc(-c2cnc3c(c2)N(Cc2cc(Cl)ccc2C(F)(F)F)CCN3)cc1 [Example 423, 4-{1-[5-Chloro-2-(trifluoromethyl)benzyl]-1,2,3,4-tetrahydropyrido[2,3-b]pyrazin-7-yl}-N-indan-2-ylbenzamide]
< 100 | O=C(c1ccc(-c2cnc3c(c2)N(Cc2cc(Cl)ccc2C(F)(F)F)CCN3)cc1)N1CCN(CCc2ccccn2)CC1 [Example 394, (4-{1-[5-Chloro-2-(trifluoromethyl)benzyl]-1,2,3,4-tetrahydropyrido[2,3-b]pyrazin-7-yl}phenyl)-[4-(2-pyridin-2-yl-ethyl)piperazin-1-yl]methanone]
< 100 | CN1CCC(NC(=O)c2ccc(-c3cnc4c(c3)N(Cc3cc(Cl)ccc3C(F)(F)F)CCN4)cc2)CC1 [Example 393, 4-{1-[5-Chloro-2-(trifluoromethyl)benzyl]-1,2,3,4-tetrahydropyrido[2,3-b]pyrazin-7-yl}-N-(1-methylpiperidin-4-yl)benzamide]
100 to 1000 | O=C(NCCc1cccs1)c1ccc(-c2cnc3c(c2)N(Cc2cc(Cl)ccc2C(F)(F)F)CCN3)cc1 [Example 398, 4-{1-[5-Chloro-2-(trifluoromethyl)benzyl]-1,2,3,4-tetrahydropyrido[2,3-b]pyrazin-7-yl}-N-(2-thiophen-2-yl-ethyl)benzamide]
< 100 | O=C(c1ccc(-c2cnc3c(c2)N(Cc2cc(Cl)ccc2C(F)(F)F)CCN3)cc1)N1CCC[C@H]1CN1CCCC1 [Example 430, (4-{1-[5-Chloro-2-(trifluoromethyl)benzyl]-1,2,3,4-tetrahydropyrido[2,3-b]pyrazin-7-yl}phenyl)-((S)-2-pyrrolidin-1-ylmethylpyrrolidin-1-yl)methanone]
100 to 1000 | O=C(c1ccc(-c2cnc3c(c2)N(Cc2cc(Cl)ccc2C(F)(F)F)CCN3)cc1)N1Cc2ccccc2C1 [Example 433, (4-{1-[5-Chloro-2-(trifluoromethyl)benzyl]-1,2,3,4-tetrahydropyrido[2,3-b]pyrazin-7-yl}phenyl)-(1,3-dihydroisoindol-2-yl)methanone]
